Measured values as given in patent US5571831A, “Imidazole derivative, and pharmaceutical composition” (Kureha Chemical Industry Co., Ltd., priority 1992, dated 1996).
In brackets after ≈: the same amount, converted by molar mass.

What was measured:
Experiment in all cases: Minimum inhibitory concentration (agar medium)
Assay type in all cases: cell-based
[1] = system: Candida parapsilosis IFO 1396; settings: Lodderomyces parapsilosis, IFO1396, 72 h; Candida parapsilosis IFO 1396, 27° C., 3 days, Sabouraud dextrose agar
Experimental: (§1) The minimum inhibitory concentrations (MIC) in vitro of the compounds 1 to 3 of the present invention against microorganisms belonging to the genera Candida and Aspergillus were determined. (1) The strains of the microorganisms used were as follows. The inoculation solutions were prepared at a concentration of 1×10^6 cells/ml. 6) Candida parapsilosis IFO 1396 (2) As the medium, a Sabouraud dextrose agar medium (Difco: dextrose 2%, agar 1.8%, not adjusted in pH) was used. The samples of the compounds to be tested were used after dissolved in dimethyl sulfoxide. The concentrations of the samples were from […]. The agar media containing the different concentrations of the compounds to be tested were inoculated with the microorganisms, using a microplanter (Sakuma Seisakusho). The microorganisms belonging to the genera Candida were cultured at 27° C. for 3 days, and the microorganisms belonging to the genus Aspergillus at 27° C. for 5 days.

[2] = system: Aspergillus fumigatus IFO 5840; settings: IFO5840, 120 h; Aspergillus fumigatus IFO 5840, 27° C., 5 days, Sabouraud dextrose agar
Experimental: as §1, with “7) Aspergillus fumigatus” for “6) Candida parapsilosis”, “5840” for “1396”

[3] = system: Candida tropicaris IFO 1400; settings: IFO1400, 72 h; Candida tropicaris IFO 1400, 27° C., 3 days, Sabouraud dextrose agar
Experimental: as §1, with “4)” for “6)”, “tropicaris” for “parapsilosis”, “1400” for “1396”

[4] = system: Aspergillus fumigatus IFO 9733; settings: IFO9733, 120 h; Aspergillus fumigatus IFO 9733, 27° C., 5 days, Sabouraud dextrose agar
Experimental: as §1, with “8) Aspergillus fumigatus” for “6) Candida parapsilosis”, “9733” for “1396”

[5] = system: Candida albicans IFO 1270; settings: IFO1270, 72 h; Candida albicans IFO 1270, 27° C., 3 days, Sabouraud dextrose agar
Experimental: as §1, with “2)” for “6)”, “albicans” for “parapsilosis”, “1270” for “1396”

[6] = system: Candida albicans ATCC 762; settings: ATCC762, 72 h; Candida albicans ATCC 762, 27° C., 3 days, Sabouraud dextrose agar
Experimental: as §1, with “3)” for “6)”, “albicans ATCC 762” for “parapsilosis IFO 1396”

[7] = system: Candida albicans IFO 1060; settings: IFO1060, 72 h; Candida albicans IFO 1060, 27° C., 3 days, Sabouraud dextrose agar
Experimental: as §1, with “1)” for “6)”, “albicans” for “parapsilosis”, “1060” for “1396”

Candida krusei IFO 1395 = settings: Pichia kudriavzevii, IFO1395, 72 h; Candida krusei IFO 1395, 27° C., 3 days, Sabouraud dextrose agar
Experimental: as §1, with “5)” for “6)”, “krusei” for “parapsilosis”, “1395” for “1396”

Row | Structure (SMILES) | MIC [1] [µg/mL] | MIC [2] [µg/mL] | MIC [3] [µg/mL] | MIC [4] [µg/mL] | MIC [5] [µg/mL] | MIC [6] [µg/mL] | MIC [7] [µg/mL] | MIC (Candida krusei IFO 1395) [µg/mL]
1 | CC1(C)CC[C@@H](c2ccc(O)cc2)C[C@@]1(O)Cn1ccnc1 (relative stereo) [Compound 3, 2,2-dimethyl-5-(4-hydroxyphenyl)-1-(1H-imidazoly-1-yl-methyl)-cyclohexane-1-ol] | 200 (≈ 666 µM) | 200 (≈ 666 µM) | 50 (≈ 166 µM) | 200 (≈ 666 µM) | 100 (≈ 333 µM) | 50 (≈ 166 µM) | 50 (≈ 166 µM) | 200 (≈ 666 µM)
2 | CC1(C)CCC(c2ccc(Cl)cc2)CC1(O)Cn1ccnc1 (racemic) [Compound 2, 2,2-dimethyl-5-(4-chlorophenyl)-1-(1H-imidazol-1-ylmethyl)-cyclohexane-1-ol] | > 100 | 100 (≈ 314 µM) | 100 (≈ 314 µM) | 100 (≈ 314 µM) | 25 (≈ 78.4 µM) | 25 (≈ 78.4 µM) | 50 (≈ 157 µM) | > 100
3 | OC1(Cn2ccnc2)CCCC(c2ccc(F)cc2)C1 (centres unmarked) [Compound C, 3-(4-fluorophenyl)-1-(1H-imidazol-1-ylmethyl)-cyclohexane-1-ol, reference compound] | > 400 | > 400 | > 400 | > 400 | 200 (≈ 729 µM) | 200 (≈ 729 µM) | 200 (≈ 729 µM) | > 400
4 | CC1(C)CCC(c2ccc(F)cc2)CC1(O)Cn1ccnc1 (racemic) [Compound 1, 2,2-dimethyl-5-(4-fluorophenyl)-1-(1H-imidazol-1-ylmethyl)-cyclohexane-1-ol] | 50 (≈ 165 µM) | 50 (≈ 165 µM) | 50 (≈ 165 µM) | 50 (≈ 165 µM) | 50 (≈ 165 µM) | 50 (≈ 165 µM) | 50 (≈ 165 µM) | 50 (≈ 165 µM)
